As usually defined, the Papp is a coefficient for how fast a substance crosses the barrier. A lower Papp goes with poor permeation.

Each structure is given as a SMILES string. *1 amine or outer side, *2 acyl side, *3 side chain or, on linkers, in order; H or OH if unused. Where a SMILES comes first, the peptide text is derived from it. Bridges are numbered along the chain shown (N, C = ends). [ ]: non-standard residue; d: D form. The star is where a group is joined. ξ: configuration not given here. Phe(3-OMe,4-CONHMs) = COc1cc(C[C@H](N)C(=O)O)ccc1C(=O)NS(C)(=O)=O; NMeAbu(4-morpholino) = CN[C@@H](CCN1CCOCC1)C(=O)O; X11 = CNC(=O)c1ccc(CCN(CC(=O)[*:2])[*:1])cc1OC; NMePhe(3-Cl) = CN[C@@H](Cc1cccc(Cl)c1)C(=O)O; ξGln(SO2Me) = CS(=O)(=O)NC(=O)CCC(N)C(=O)O; NMehPhe = CN[C@@H](CCc1ccccc1)C(=O)O; X6 = O=C([C@H](CCCCO)N[*:1])[*:2]; NMeF = CN[C@@H](Cc1ccccc1)C(=O)O; NMeGABA = CN(CCCC(=O)[*:2])[*:1]; NMeI = CC[C@H](C)[C@H](NC)C(=O)O; Butyl(3-Me,3-OH) = CC(C)(O)CC*; NMeD = CN[C@@H](CC(=O)O)C(=O)O; NMeL = CN[C@@H](CC(C)C)C(=O)O; Propyl(2R-OH) = C[C@@H](O)C*; NMeV = CN[C@H](C(=O)O)C(C)C; ξIle = CC[C@H](C)C(N)C(=O)O; NMeAbu = CC[C@H](NC)C(=O)O; NMeA = CN[C@@H](C)C(=O)O; Piperidide = C1CCN(*)CC1; dAbu = CC[C@@H](N)C(=O)O; dNMeA = CN[C@H](C)C(=O)O; X8 = C1COC[C@@H](C*)N1; NBuGly = CCCCNCC(=O)O; NPrGly = CCCNCC(=O)O; X3 = C[C@H](O)C*; Sar = CNCC(=O)O; tBu = CC(C)(C)*

A short description of the first series: in vitro. The following applies: human, Caco-2, Caco-2.
Compound `CCCCN1CC(=O)N(C)[C@@H](Cc2ccccc2)C(=O)NC(CCC(=O)NS(C)(=O)=O)C(=O)N(C)[C@@H](CC(C)C)C(=O)N[C@@H]([C@@H](C)O)C(=O)N(CCCC)CC(=O)N(C)[C@@H](Cc2ccccc2)C(=O)N(C)[C@@H](CC(C)C)C(=O)N[C@@H](CC(C)C)C(=O)N(C)[C@@H](CC(C)C)C(=O)N[C@H](C(=O)N2CCCCC2)CC1=O` (stereo partly drawn) [pd65] ([NBuGly][NMeF][ξGln(SO2Me)][NMeL]T[NBuGly][NMeF][NMeL]L[NMeL]D-Piperidide; lactam N-11) yielded a Papp of 0.06 ×10⁻⁶ cm/s.

Compound `CCCCN1CC(=O)N(C)[C@@H](C(C)C)C(=O)N[C@H](C(=O)N2CCCCC2)CC(=O)N(C)[C@@H](C)C(=O)N[C@@H](CC(C)C)C(=O)N(C)[C@@H](CC(C)C)C(=O)N(C)[C@@H](Cc2ccccc2)C(=O)N[C@@H](CC(C)C)C(=O)N(C)[C@@H](Cc2ccccc2)C(=O)N(C)[C@@H](CCN2CCOCC2)C(=O)N[C@@H]([C@@H](C)O)C1=O` [pd453] ([NMeA]L[NMeL][NMeF]L[NMeF][NMeAbu(4-morpholino)]T[NBuGly][NMeV]D-Piperidide; lactam N-11) registered a Papp of 2.3 ×10⁻⁶ cm/s.

The series is the same for the next values; noted with them: human, Caco-2, Caco-2 (cm/sec).
For the compound `CC[C@H](C)[C@@H]1NC(=O)[C@H](CC(C)C)N(C)C(=O)[C@@H](C)NC(=O)C[C@@H](C(=O)N2CCCCC2)NC(=O)[C@H](CC(C)C)N(C)C(=O)[C@H](Cc2ccccc2)N(C)C(=O)[C@H](COC(C)(C)C)NC(=O)[C@H](CC(C)C)N(C)C(=O)[C@H](CC)N(C)C(=O)[C@H]([C@@H](C)O)NC(=O)CN(CCc2ccc(C(=O)NC)c(OC)c2)C1=O` [AP222] ([dA][NMeL]I[X11]T[NMeAbu][NMeL]S(tBu)[NMeF][NMeL]D-Piperidide; lactam N-11), the Papp is 0.31 ×10⁻⁶ cm/s.

`CC[C@H](C)[C@@H]1NC(=O)[C@H](CC(C)C)N(C)C(=O)CCCN(C)C(=O)C[C@@H](C(=O)N2CCCCC2)NC(=O)[C@H](CC(C)C)N(C)C(=O)[C@H](CC(C)C)N(C)C(=O)[C@H]([C@@H](C)O)NC(=O)[C@H](CC(C)C)N(C)C(=O)[C@H](Cc2ccc(O)cc2)NC(=O)[C@H](CC(C)C)N(C)C(=O)[C@H](Cc2ccccc2)N(C)C1=O` [Compound F03] ([NMeGABA][NMeL]I[NMeF][NMeL]Y[NMeL]T[NMeL][NMeL]D-Piperidide; lactam N-11) had a Papp of 0.13 ×10⁻⁶ cm/s.

`CC[C@H]1NC(=O)C[C@@H](C(=O)N2CCCCC2)NC(=O)[C@H](CC(C)C)N(C)C(=O)[C@H](Cc2cccc(Cl)c2)N(C)C(=O)[C@H](CCCCO)NC(=O)[C@H](CC(C)C)N(C)C(=O)CN(C)C(=O)[C@H]([C@@H](C)O)NC(=O)[C@H](CC(C)C)N(C)C(=O)[C@H](CC(C)C)NC(=O)[C@H](CCc2ccccc2)N(C)C1=O` [Compound B02] ([dAbu][NMehPhe]L[NMeL]T[Sar][NMeL][X6][NMePhe(3-Cl)][NMeL]D-Piperidide; lactam N-11) came in with a Papp of 0.15 ×10⁻⁶ cm/s.

In turn, `CC(C)C[C@@H]1NC(=O)[C@H](Cc2ccccc2)N(C)C(=O)[C@H](COC(C)(C)C)NC(=O)[C@H](Cc2ccccc2)N(C)C(=O)[C@H](C)N(C)C(=O)[C@H](CC(C)C)N(C)C(=O)[C@H](C)N(C)C(=O)C[C@@H](C(=O)N2CCCCC2)N(C)C(=O)[C@H](Cc2ccccc2)N(C)C(=O)[C@H]([C@@H](C)O)NC(=O)[C@H](C(C)C)N(C)C1=O` [pd213] ([NMeA][NMeL][NMeA][NMeF]S(tBu)[NMeF]L[NMeV]T[NMeF][NMeD]-Piperidide; lactam N-11) had a Papp of 1.3 ×10⁻⁶ cm/s.

Take `COc1cc(C[C@@H]2NC(=O)[C@H](CC(C)C)N(C)C(=O)[C@H](COC(C)(C)C)NC(=O)[C@H](Cc3ccccc3)N(C)C(=O)[C@H](CC(C)C)N(C)C(=O)[C@H](C)NC(=O)[C@H](CC(C)C)N(C)C(=O)CCCN(C)C(=O)C[C@@H](C(=O)N3CCCCC3)NC(=O)[C@H](CC(C)C)N(C)C(=O)[C@H](CC(C)C)N(C)C2=O)ccc1C(=O)NS(C)(=O)=O` [AP141] ([NMeGABA][NMeL]A[NMeL][NMeF]S(tBu)[NMeL][Phe(3-OMe,4-CONHMs)][NMeL][NMeL]D-Piperidide; lactam N-11): the Papp was < 0.27 ×10⁻⁶ cm/s.

Compound `CC(C)C[C@@H]1NC(=O)[C@H](Cc2ccccc2)N(C)C(=O)[C@H](CC(C)C)N(C)C(=O)[C@@H](C)N(C)C(=O)C[C@@H](C(=O)N2CCCCC2)NC(=O)[C@H](CC(C)C)N(C)C(=O)[C@H](Cc2ccccc2)N(C)C(=O)[C@H]([C@@H](C)O)NC(=O)[C@H](Cc2ccccc2)N(C)C1=O` [pd223] ([dNMeA][NMeL][NMeF]L[NMeF]T[NMeF][NMeL]D-Piperidide; lactam N-9) returned a Papp of 1.1 ×10⁻⁶ cm/s.

On to `CC[C@H](C)[C@H]1C(=O)N[C@@H]([C@@H](C)O)C(=O)N(C)CC(=O)N(C)[C@@H](CC(C)C)C(=O)N[C@H](C(=O)N2CCCCC2)CC(=O)N(C)[C@@H](C(C)C)C(=O)N[C@@H](COC[C@@H](C)O)C(=O)N(C)[C@@H](CC(C)C)C(=O)N(C)[C@@H](Cc2cccc(Cl)c2)C(=O)N[C@@H](CC(C)C)C(=O)N(C)[C@@H](Cc2ccccc2)C(=O)N1C` [AP79] ([NMeV]S(Propyl(2R-OH))[NMeL][NMePhe(3-Cl)]L[NMeF][NMeI]T[Sar][NMeL]D-Piperidide; lactam N-11), for which the Papp worked out at 1.1 ×10⁻⁶ cm/s.

In the case of `CC[C@H](C)[C@H]1C(=O)N[C@@H](Cc2ccc(O)cc2)C(=O)N(C)CC(=O)N(C)[C@@H](CC(C)C)C(=O)N[C@H](C(=O)N2CCCCC2)CC(=O)N(C)[C@@H](C)C(=O)N[C@@H](CC(C)C)C(=O)N(C)[C@@H](C)C(=O)N(C)[C@@H](Cc2ccccc2)C(=O)N[C@@H](C(C)C)C(=O)N(C)[C@@H](C)C(=O)N1C` [pd116] ([NMeA]L[NMeA][NMeF]V[NMeA][NMeI]Y[Sar][NMeL]D-Piperidide; lactam N-11), the Papp came out at 0.14 ×10⁻⁶ cm/s.

For the compound `CC[C@H](C)[C@H]1C(=O)N[C@@H](COC[C@@H](C)O)C(=O)N(C)CC(=O)N(C)[C@@H](CC(C)C)C(=O)N[C@H](C(=O)N2CCCCC2)CC(=O)N(C)[C@@H](C)C(=O)N[C@@H](CC(C)C)C(=O)N(C)[C@@H](CC(C)C)C(=O)N(C)[C@@H](Cc2ccccc2)C(=O)N[C@@H](CC(C)C)C(=O)N(C)[C@@H](Cc2ccccc2)C(=O)N1C` [AP85] ([NMeA]L[NMeL][NMeF]L[NMeF][NMeI]S(Propyl(2R-OH))[Sar][NMeL]D-Piperidide; lactam N-11), the Papp was determined as 5.2 ×10⁻⁶ cm/s.

Compound `CC(C)C[C@H]1C(=O)N[C@@H](C(C)C)C(=O)N(C)[C@@H](CCc2ccccc2)C(=O)N(C)[C@@H](CCc2ccccc2)C(=O)N[C@@H](CCCCO)C(=O)N(C)[C@@H](CC(C)C)C(=O)N[C@@H]([C@@H](C)O)C(=O)N(C)[C@@H](CC(C)C)C(=O)N(C)[C@@H](CC(C)C)C(=O)N[C@H](C(=O)N2CCCCC2)CC(=O)N(C)CCCC(=O)N1C` [Compound B04] ([NMeGABA][NMeL]V[NMehPhe][NMehPhe][X6][NMeL]T[NMeL][NMeL]D-Piperidide; lactam N-11) returned a Papp of 0.07 ×10⁻⁶ cm/s.

On to `CC(C)C[C@@H]1NC(=O)[C@H](Cc2ccccc2)N(C)C(=O)[C@H](C)NC(=O)C[C@@H](C(=O)N2CCCCC2)NC(=O)[C@H](Cc2ccccc2)N(C)C(=O)[C@H](Cc2ccccc2)N(C)C(=O)[C@H](COC(C)(C)C)NC(=O)[C@H](CC(C)C)N(C)C(=O)CN(C)C(=O)[C@H]([C@@H](C)O)NC(=O)[C@H](CC(C)C)N(C)C1=O` [pd217] (A[NMeF]L[NMeL]T[Sar][NMeL]S(tBu)[NMeF][NMeF]D-Piperidide; lactam N-11), for which the Papp was 1.1 ×10⁻⁶ cm/s.

For `CC(C)C[C@@H]1NC(=O)[C@H](Cc2ccccc2)N(C)C(=O)[C@H](C)N(C)C(=O)C[C@@H](C(=O)N2CCCCC2)N(C)C(=O)[C@H](Cc2ccccc2)N(C)C(=O)[C@H](Cc2ccccc2)N(C)C(=O)[C@H](COC(C)(C)C)NC(=O)[C@H](C(C)C)N(C)C(=O)CN(C)C(=O)[C@H]([C@@H](C)O)NC(=O)[C@H](CC(C)C)N(C)C1=O` [pd202] ([NMeA][NMeF]L[NMeL]T[Sar][NMeV]S(tBu)[NMeF][NMeF][NMeD]-Piperidide; lactam N-11), the Papp was found to be 2.1 ×10⁻⁶ cm/s.

For `CCCN1CC(=O)N(C)[C@@H](CC(C)C)C(=O)N[C@H](C(=O)N2CCCCC2)CC(=O)N(C)[C@@H](C)C(=O)N[C@@H](COC[C@H](C)O)C(=O)N(C)[C@@H](CC(C)C)C(=O)N(C)[C@@H](Cc2cccc(Cl)c2)C(=O)N[C@@H](CC(C)C)C(=O)N(C)[C@@H](Cc2ccccc2)C(=O)N(C)[C@@H]([C@@H](C)CC)C(=O)N[C@@H]([C@@H](C)O)C1=O` [AP65] ([NMeA]S(X3)[NMeL][NMePhe(3-Cl)]L[NMeF][NMeI]T[NPrGly][NMeL]D-Piperidide; lactam N-11), the Papp amounted to 1.2 ×10⁻⁶ cm/s.

With `CCCCN1CC(=O)N(C)[C@@H](Cc2ccccc2)C(=O)N(C)[C@@H](CC(C)C)C(=O)N[C@@H](COC[C@@H]2COCCN2)C(=O)N(C)[C@@H](CC(C)C)C(=O)N[C@H](C(=O)N2CCCCC2)CC(=O)N(C)CC(=O)N(C)[C@@H](CC(C)C)C(=O)NC([C@@H](C)CC)C(=O)N(C)[C@@H](CC(C)C)C(=O)N[C@@H]([C@@H](C)O)C1=O` (stereo partly drawn) [AP245] ([Sar][NMeL][ξIle][NMeL]T[NBuGly][NMeF][NMeL]S(X8)[NMeL]D-Piperidide; lactam N-11), the Papp is 0.1 ×10⁻⁶ cm/s.

For the compound `CC[C@H](C)[C@@H]1NC(=O)[C@H](Cc2ccccc2)N(C)C(=O)CN(C)C(=O)C[C@@H](C(=O)N2CCCCC2)NC(=O)[C@H](CC(C)C)N(C)C(=O)[C@H](COCCC(C)(C)O)NC(=O)[C@H](CC(C)C)N(C)C(=O)[C@H](CCc2ccccc2)N(C)C(=O)CN(C)C(=O)[C@H]([C@@H](C)O)NC(=O)[C@H](CC(C)C)N(C)C1=O` [AP58] ([Sar][NMeF]I[NMeL]T[Sar][NMehPhe][NMeL]S(Butyl(3-Me,3-OH))[NMeL]D-Piperidide; lactam N-11), the Papp amounted to 0.49 ×10⁻⁶ cm/s.

The same series, now with this note: human, Caco-2, Caco-2 (cm/sec) Papp.
Take `CC(C)C[C@H]1C(=O)NCC(=O)N[C@H](C(=O)N(C)[C@@H](Cc2ccccc2)C(=O)N(C)[C@@H](Cc2ccccc2)C(=O)N[C@@H](C)C(=O)N2CCCCC2)CC(=O)N[C@@H](C)C(=O)N[C@@H]([C@@H](C)O)C(=O)N(C)[C@@H](C)C(=O)N(C)[C@@H](Cc2ccccc2)C(=O)N[C@@H](C(C)C)C(=O)N(C)[C@@H](Cc2ccccc2)C(=O)N1C` [pd247] (AT[NMeA][NMeF]V[NMeF][NMeL]GD[NMeF][NMeF]A-Piperidide; lactam N-9): the Papp turned out to be 0.087 ×10⁻⁶ cm/s.

The values are drawn from patent US20230096766A1, “AMINO ACID HAVING FUNCTIONAL GROUP CAPABLE OF INTERMOLECULAR HYDROGEN BONDING, PEPTIDE COMPOUND CONTAINING SAME AND METHOD FOR PRODUCTION THEREOF” (Chugai Seiyaku Kabushiki Kaisha, priority 2018, published 2023).
